Data on 33 molecules can be found in US4348393A, “N-Aryl oxazolidinones, oxazolidinethiones, pyrrolidinones, pyrrolidines and thiazolidinones” (Delalande S.A., priority 1978, dated 1982).

SMILES strings stand for the structures.

The subject of assay [1] is generalized trembling caused by dl-5-hydroxytryptophane. The assay can be described thus: Test A: potentiation in mice of generalized trembling caused by dl-5-hydroxytryptophane. Format: in vivo. The conditions noted are these: po, mice, potentiation of trembling by dl-5-hydroxytryptophane 200 mg/kg interperitoneal; for ED50: Mus musculus, read-out: Test A ED 50. As for the experimental part:
Test A: Potentiation in mice of generalized trembling caused by an interperitoneal injection (200 mg/kg) of dl-5-hydroxytryptophane, following the protocol described by C. GOURET and G. RAYNAUD in J. Pharmacol. (Paris), (1974), 5, 231.

For assay [2], the system named is ptosis observed one hour after reserpine. The assay can be described thus: Test B: antagonism of reserpine-induced ptosis in mice. Format: in vivo. The conditions noted are these: Mus musculus, 1 h, po, antagonism of ptosis one hour after reserpine 2 mg/kg intravenous, read-out: Test B ED 50. As for the experimental part: Test B: Antagonism with respect to the ptosis observed one hour after an intravenous injection (2 mg/kg) of reserpine given to mice, following the protocol described by C.

Regarding `CC(C)OCC1CN(c2ccc(OCCC#N)cc2)C(=O)O1` (stereo not shown) [compound 53], the ED50 in assay [1] was 5 mg/kg; in assay [2] it was 5.8 mg/kg. As to `CCCCCCCCC(=O)OCC1CN(c2ccc(OCc3ccc(F)cc3)cc2)C(=O)O1` (stereo not shown) [compound 136], in assay [2], the ED50 was found to be 31 mg/kg. Still for that read-out and setting: with `OCC1CN(c2ccc(OCC3CCOCC3)cc2)C(=S)O1` (stereo not shown) [compound 119] the figure was 8 mg/kg. For `CCCCOc1ccc(N2CC(CN(C)C)OC2=O)cc1` (stereo not shown) [compound 75], in assay [1], the ED50 worked out at 8 mg/kg. With `CCC(=O)OCC1CN(c2ccc(OCc3ccc(F)cc3)cc2)C(=O)O1` (stereo not shown) [compound 135], the ED50 in assay [2] is 4.2 mg/kg. Regarding `CCCCC(=O)OCC1CN(c2ccc(OCc3cccc(F)c3)cc2)C(=O)O1` (stereo not shown) [compound 108], the ED50 in assay [1] came out at 5.6 mg/kg. The same measure, in the same setting: with `CCCCCOc1ccc(N2CC(COC)OC2=O)cc1` (stereo not shown) [compound 148] the figure was 2.2 mg/kg. For the molecule `CC(C)C(=O)OCC1CN(c2ccc(OCc3cccc(F)c3)cc2)C(=O)O1` (stereo not shown) [compound 107], the ED50 in assay [2] worked out at 12 mg/kg. For the molecule `NCC1CN(c2ccc(OCC3CCCCC3)cc2)C(=O)O1` (stereo not shown) [compound 172], the ED50 in assay [2] stood at 8.6 mg/kg. For the molecule `CCC(=O)OCC1CN(c2ccc(OCc3cccc(F)c3)cc2)C(=O)O1` (stereo not shown) [compound 106], the “Test A ED 50” value in assay [1] is given as 6.2 mg/kg. For `CCCCC(=O)OCC1CN(c2ccc(OCC3CCCCC3)cc2)C(=O)O1` (stereo not shown) [compound 104], the ED50 in assay [1] worked out at 6.2 mg/kg. On to `COCC1CN(c2ccc(OCC3=CCCCC3)cc2)C(=O)O1` (stereo not shown) [compound 56], for which, in assay [2], the ED50 is 3 mg/kg. On the same count and under the same terms, in the case of `COCC1CN(c2ccc(OCc3ccc(F)cc3)cc2)C(=O)O1` (stereo not shown) [compound 64] it was 4.5 mg/kg. As to `CC(C)CC(=O)OCC1CN(c2ccc(OCc3cccc([N+](=O)[O-])c3)cc2)C(=O)O1` (stereo not shown) [compound 134], the ED50 in assay [2] is 3.9 mg/kg. In the case of `CCCCCCOc1ccc(N2CC(COC)OC2=O)cc1` (stereo not shown) [compound 149], the ED50 in assay [1] turned out to be 6 mg/kg. The same measure, in the same setting: in the case of `CC(C)OCC1CN(c2ccc(OCc3cccc(Cl)c3)cc2)C(=O)O1` (stereo not shown) [compound 60] it was 30 mg/kg. For `N#CCCOc1ccc(N2CC(CO)OC2=S)cc1` (stereo not shown) [compound 102], in assay [1], the ED50 turned out to be 6.2 mg/kg. Regarding `CCC(=O)OCC1CN(c2ccc(OCC3CCCCC3)cc2)C(=O)O1` (stereo not shown) [compound 22], the ED50 in assay [2] turned out to be 3 mg/kg. In the case of `CCC(=O)OCC1CN(c2ccc(OCc3cccc(F)c3)cc2)C(=O)O1` (stereo not shown) [compound 44], in assay [1], the ED50 is 6.2 mg/kg. `CC(C)(C)C(=O)OCC1CN(c2ccc(OCCC#N)cc2)C(=O)O1` (stereo not shown) [compound 7]: in assay [2], the ED50 worked out at 7.4 mg/kg. Take `CCC(=O)OCC1CN(c2ccc(OCc3cc(Cl)cc([N+](=O)[O-])c3)cc2)C(=O)O1` (stereo not shown) [compound 137]: the ED50 in assay [2] was 6 mg/kg. On the same count and under the same terms, in the case of `CCC(=O)OCC1CN(c2ccc(OCCC(C)C)cc2)C(=O)O1` (stereo not shown) [compound 124] it was 0.6 mg/kg. As for `CC(C)(C)C(=O)OCC1CN(c2ccc(OCC3CCCCC3)cc2)C(=O)O1` (stereo not shown) [compound 105], in assay [1], the ED50 came out at 6.2 mg/kg. With `CCCOCC1CN(c2ccc(OCc3cccc(C#N)c3)cc2)C(=O)O1` (stereo not shown) [compound 160], the ED50 in assay [2] turned out to be 4.2 mg/kg. With `CN(C)CC1CN(c2ccc(OCC3CCCC3)cc2)C(=O)O1` (stereo not shown) [compound 78], the ED50 in assay [1] was 6.2 mg/kg.

As to `OCC1CN(c2ccc(OCC3=CCCCC3)cc2)C(=S)O1` (stereo not shown) [compound 101], the ED50 in assay [1] turned out to be 18 mg/kg. On the same count and under the same terms, in the case of `COCC1CN(c2ccc(OCCC(C)C)cc2)C(=O)O1` (stereo not shown) [compound 111] it was 0.28 mg/kg. For the molecule `CCCCCCCCC(=O)OCC1CN(c2ccc(OCc3cc(Cl)cc([N+](=O)[O-])c3)cc2)C(=O)O1` (stereo not shown) [compound 138], the ED50 in assay [2] worked out at 6 mg/kg. With `CC(=O)OCC1CN(c2ccc(OCc3cccc(C#N)c3)cc2)C(=S)O1` (stereo not shown) [compound 120], the ED50 in assay [2] stood at 3 mg/kg. As for `OCC1CN(c2ccc(OCC3CCCC3)cc2)C(=S)O1` (stereo not shown) [compound 100], in assay [1], the ED50 is 6.2 mg/kg. With `CCCCCCCCC(=O)OCC1CN(c2ccc(OCCC#N)cc2)C(=O)O1` (stereo not shown) [compound 9], the ED50 in assay [2] was determined as 25 mg/kg. With `COCC1CN(c2ccc(OCCCC#N)cc2)C(=O)O1` (stereo not shown) [compound 110], the ED50 in assay [1] was determined as 0.3 mg/kg. `CNCC1CN(c2ccc(OCC3CCCCC3)cc2)C(=O)O1` (stereo not shown) [compound 173]: the ED50 in assay [2] stood at 4.7 mg/kg.
